Data set [1] can be described thus: Peptide degradation by human plasma (HPLC / mass spectrum). The class given is in vitro ADME. The note with it: human plasma, 37° C. The method, then: Peptides have variable half lives in the plasma due to the proteolytic activity and the renal filtration, which are relevant aspects in the pharmacokinetics of drug candidates.
To analyze the peptide in HPLC and Mass Spectrum, an aliquot of 200 μL was transferred to a new Eppendorf tube and proteins were precipitated with 20 μL trifluoroacetic acid for 5 minutes at 4° C. After centrifugation for 10 minutes at 14,000 rpm, the supernatant was analyzed in an LC/ESI-MS (Waters).
Regarding assays for determining time-lapse plasma degradation of RB9 peptide, peptide degradation by human plasma was monitored in HPLC and Mass spectra every 30 minutes as described above (FIG. 12). About 50% RB9 was cleaved after 2 hours of incubation at 37° C.

For data set [2], the system named is tumor cells. Briefly: Antitumor activity of RebMab 200 CDR peptides. It is filed as cell-based. An excerpt:
(§1) Details of the in vitro tumor cell growth, cytotoxicity tests, determination of viable cells and in vivo protection experiments with B16F10 cells in a mouse metastatic model are described in Polonelli et al. (PLoS One. 3(6):e2371, 2008) and Dobroff et al. (Translat. Onc., 3: 204-217, 2010).
Amidated RebMab 200 CDR H2 (SEQ ID NO: 7) shares up to sixteen (16) identical amino acids with similar H2 fragments from several murine antibodies of various specificities.

Data set [3] concerns B16F10-Nex2 melanoma cells. The experiment in a line: In vivo protection against lung colonization (metastatic melanoma model). Further details: species or system C57B1/6 mice. As to conditions: 250 μg i.p. on days 1, 3, 5, 7, 9, 11; lungs after 22 days. How it is done:
as §1
Peptides RB9 and RB10 along with the apoptotic peptide A4H3, a true microantibody of cytotoxic anti-melanoma mAb (A4) (Dobroff et al., Translat. Onc., 3: 204-217, 2010), were tested for their protective effects against lung colonization by B16F10-Nex2 melanoma cells (2×105) injected intravenously in C57B1/6 mice (6 animals/group). Peptides were intraperitoneally administered (250 μg i.p.) on days 1, 3, 5, 7, 9, 11 after tumor cell challenge. Lungs of peptide-treated animals are shown in FIG. 5 after 22 days of tumor challenge. As noticed, peptide treatment was interrupted 10 days before animal sacrifice.
In vivo protection by peptides RB9 and RB10 (and A4H3 control) against lung colonization by B16F10-Nex2 melanoma cells (2×105) injected intravenously in C57B1/6 mice (6 animals/group) is shown in FIG. 6. The other 5 CDRs of RebMab200 (SEQ ID NOs: 7, 10, 11, 12, 13) were unprotective in vivo. Peptides were administered in the same way as described above, and the number of lung nodules was determined.

Data set [4] deals with B16F10-Nex2 melanoma cells. The experiment in a line: Cell migration, wound healing assay. The note with it: peptide 500 μM, 24 hours after wounding. The class given is cell-based, murine. The method, then:
(§2) For the migration studies, 5×10^5 or 10^6 cells were distributed on 6-well plates and let them to adhere for 2 hours at 37° C./5% CO2. The culture medium was changed and the peptide was added at 500 μM overnight. The cell monolayer was “wounded” with a P1000 tip and incubated for 24 hours. Images of untreated cells (control) and peptide treated cells were captured with a JENOPTIK camera. Cell numbers (nuclei) were determined using the Pixcavator software version 5.0.
Viable B16F10-Nex2 cells (5×105)/well were distributed on a 6-well culture plate and incubated overnight at 37° C. in a humidified chamber with 5% CO2. A P1000 tip was used for wounding the cell monolayer and the image was immediately captured (0 hour) using a camera (Jenoptik) with the software Progres 2.8. After 24 hours a new image of the same field was obtained and recorded (24 hours).
Viable B16F10-Nex2 cells (3×10^5)/well were distributed in a 12-well culture plate and incubated for 4 hours at 37° C. in a humidified chamber with 5% CO2. Fresh medium containing RB10 (SEQ ID NO: 9) at different concentrations was added to the wells and incubated again for 4 hours. The monolayer wounding was performed as described above in Example 12, and images obtained accordingly. After 24 hours a new image in the same field was obtained and recorded (24 hours). […] Magnification ×100.

For data set [5], the system named is human cervix cancer SiHa cells. The experiment in a line: Cell migration, wound healing assay. The class given is cell-based. The note with it: peptide 500 μM, 24 hours. How it is done:
as §2

The test system of data set [6] is human cervix cancer HeLa cells. Briefly: Cell migration, wound healing assay. It is filed as cell-based. As to conditions: peptide 500 μM, 24 hours. How it is done:
as §2

Data set [7] has as its system human glioblastoma U87 cells. The experiment in a line: Cell migration, wound healing assay. The class given is cell-based. As to conditions: peptide 500 μM, 24 hours. The method, then:
as §2

Data set [8] concerns melanoma B16F10-Nex2 cells. Briefly: Alanine scanning series cell adhesion assay (MTT after trypsin-EDTA). It is filed as cell-based, murine. As to conditions: 1 mM peptide, 24 hours. How it is done: The peptide RB10 (SEQ ID NO: 9) was engineered to replace each amino acid by alanine using Ala-scan methodology, and thus help evaluate the role of each amino acid on biological effect, specifically on the hyper-adherence observed with 1 mM peptide.
For this purpose, viable melanoma B16F10-Nex2 cells (1×10^4)/well were distributed on a 96-well culture plate and incubated for 4 hours. Fresh media containing 1 mM of the alanine-scanning series for RB10 was added and incubated for 24 hours. Treated cells were detached with 30 μl/well of trypsin-EDTA for five minutes at 37° C. and gently washed with PBS. Cells were incubated for 4 hours with 0.5 mg/mL of MTT [3-(4,5-Dimethylthiazol-2-yl)-2,5-diphenyltetrazolium bromide] in fresh media and the formazan crystals were solubilized adding 1 volume of a 10% SDS solution overnight. Intensity was measured using a plate reader at 570 nm. […] The 100% value for each peptide represented the treated cells that had not been trypsinized.

Data set [9] relates to tumor cells. The experiment in a line: Cell adherence assay (detachment with trypsin/EDTA). It is filed as cell-based. How it is done:
At a lower dose, cells would be detached with trypsin/EDTA at rates inversely proportional to the peptide concentration. Conceivably, peptides RB9 and RB10 affected the cytoskeleton dynamics of cells, thus signaling increased cell adhesion.
B16F10-Nex2.1 cells (5×10^3) and U87-MG cells (1×10^4) were cultivated in 96-well plates and incubated with different concentrations of RB9 (SEQ ID NO: 8) and RB10 (SEQ ID NO: 9) from 0.01 to 1 mM (i.e., 0.01, 0.05, 0.1, 0.25, 0.7, 0.8 and 1 mM of RB9 and RB10 for B16F10-Nex 2.1 cells; and 0.25, 0.5, 0.75 and 1 mM of RB9 and RB10 for U87-MG cells). After 18 hours incubation, viable cells detached with trypsin/EDTA were counted using Trypan blue exclusion staining. All assays were performed in triplicate in two independent experiments.
SKBR3 cells (1×10^4) were cultivated in 96-well plates and incubated with RB9 (SEQ ID NO: 8) and RB10 (SEQ ID NO: 9). After 18 hours incubation, viable cells detached with trypsin/EDTA were counted using Trypan blue exclusion staining. Assays were performed in triplicate in two independent experiments. The A2058 human melanoma cells (1×10^4) were incubated for 4 hours at 37° C. in a humidified chamber with 5% CO2. Fresh media containing different peptide concentrations of RB9 and RB10 ranging from 0 to 1 mM (i.e., 0, 0.25, 0.5 and 1 mM) was added to the wells and incubated for 24 hours. The media was then aspirated, cells were detached with 30 μl/well of trypsin-EDTA for five minutes at 37° C. and viable cells were counted in a Neubauer chamber using Trypan blue. As shown in FIGS. 2A-2D, 50% of cells were trypsin-EDTA resistant at 630 and 610 μM RB9 and RB10, respectively.

One may read the half-life as the time in which the quantity being followed falls by half. Low values mean rapid decline, high ones slow decline.

Where two headings read alike, the source gives them in different places. Non-standard residues stand in square brackets, D forms with d. Residues, ends and D or L forms follow the SMILES beside them. No end group written: not given here.

As to “AIYPGNGDTSYKQKFRG-NH2 [RB8, AIYPGNGDTSYKQKFRG-NH2]”, the half-life in data set [1] was below 1 h. The figures for the antitumor activity entry in the data set with tumor cells [2] (listed as RBB) and in the data set with tumor cells [2] (listed as SEQ ID NO: 7) were “no antitumor activity” and “no antitumor effect”, respectively. In addition, the “protection against lung colonization (lung nodules)” value in data set [3] is on record as “unprotective”.
On to `C[C@H](NC(=O)[C@H](CCCNC(=N)N)NC(=O)[C@H](C)NC(=O)[C@@H](NC(=O)[C@H](CCC(=O)O)NC(=O)CNC(=O)[C@H](CCCNC(=N)N)NC(=O)[C@@H](C)NC(=O)[C@@H](N)CS)[C@@H](C)O)C(=O)N[C@H](C(=O)N[C@@H](Cc1ccccc1)C(=O)N[C@@H](C)C(=O)N[C@@H](Cc1ccc(O)cc1)C(=O)N[C@@H](Cc1c[nH]c2ccccc12)C(=O)NCC(=O)N[C@@H](CCC(N)=O)C(=O)NCC(N)=O)[C@@H](C)O` [RB10 M3, C(dA)RGETARATFAYWGQG-NH2] (H-C[dA]RGETARATFAYWGQG-NH2; N-terminus assumed), for which the “inhibition of cell migration (words)” value is on record as “complete inhibition” in [4] and “Total inhibition” in [4] (listed as RB10M3). The “inhibition of cell migration” value in data set [5] is reported as “almost complete inhibition”; in [5] (listed as RB10M3) it was “complete or almost complete inhibition”; in data set [6], “almost complete inhibition”; in [6] (listed as RB10M3), “complete or almost complete inhibition”; in data set [7] it was “partial inhibition”; in data set [7] (listed as RB10M3), “partial migration inhibition”.
Turning to “CARGETARATFAYWGQG (Sequence of CDR H3 from RebMab 200 (huMX35), obtainable by a known method) [RB10a]”, in the data set with tumor cells [2], the antitumor activity result is listed as “antitumor effects”. Further, the trypsin/EDTA-resistant cell adherence entry in data set [8] was “high trypsin/EDTA-resistant cell adherence”. Further, the “adherence at peptide concentration of 1 mM (not suspended by trypsin/EDTA)” value in the data set with tumor cells [9] (1 mM peptide) is recorded as “hyper-adherence”. Besides, the “adherence of tumor cells to the substrate” value with tumor cells [9] (96-well plates, RPMI 10% FCS, seen in B16F10-Nex2.1, U87MG, A5028 melanoma, SKBR3, SiHa, HCT cells) is listed as “dose dependent increase of adherence”.

These data come from patent publication US9896512B2, “Antitumor peptide derived from a complementarity determining region of a humanized monoclonal antibody to NAP12B transporter” (Recepta Biopharma S.A., priority 2010, dated 2018).
